Measurements: US6620828B2, “Thiazole compounds and pharmaceutical compositions for inhibiting protein kinases and methods for their use” (Agouron Pharmaceuticals, Inc., priority 1999, dated 2003)

Assays:
Format in all cases: biochemical
[1] = target: T1, phosphorylated VEGF-R2Δ50 (FLVK-P) (Homo sapiens, UniProt P35968, DEL940-989/E990V); assay: VEGF-R2 coupled spectrophotometric (FLVK-P) assay; conditions: read-out: VEGF % inhibition at 20 μM, 20 μM; combinatorial library compounds
T1 construct: VEGF-R2Δ50 contains residues 806-939 and 990-1171; made in house; host or cells: baculovirus/insect cells
Summary of the method: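 Baculovirus-expressed human VEGF-R2Δ50 (residues 806-939/990-1171, E990V) was autophosphorylated with 3 mM ATP, 40 mM MgCl2 for 2 h at 4° C. ADP formation was coupled via PK/LDH to NADH oxidation, read at 340 nm, with 5.1 mM poly(E4Y1), 1 mM ATP, 25 mM MgCl2, Hepes pH 7.5. Ki came from activity across compound concentrations.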

CDK4/Cyclin D3 complex = target: T2, CDK4/Cyclin D3 complex (Homo sapiens, UniProt P11802); assay: CDK4/Cyclin D assay; conditions: 1.0 μM; combinatorial library compounds
T2 construct: made in house; host or cells: insect cells co-infected with baculovirus vectors
Summary of the method: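 Insect-cell-expressed CDK4/cyclin D3 (50 nM) phosphorylating His-tagged Rb fragment (residues 386-928) with 25 μM [^32P]ATP in HEPES pH 7.4, MgCl2, 2% DMSO; 20 min at 30 °C, EDTA stop. Filter-captured 32P by phosphorimager; apparent Ki from competitive or tight-binding inhibition fits.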

FL-CHK1 = target: T3, FL-CHK1 (Homo sapiens, UniProt O14757); assay: CHK1 assay; conditions: 20 μM; combinatorial library compounds
T3 construct: C-terminally His-tagged full-length human CHK1 (FL-CHK1); 6xHis (C); made in house; host or cells: baculovirus/insect cells
T3 sequence (O14757 1-476): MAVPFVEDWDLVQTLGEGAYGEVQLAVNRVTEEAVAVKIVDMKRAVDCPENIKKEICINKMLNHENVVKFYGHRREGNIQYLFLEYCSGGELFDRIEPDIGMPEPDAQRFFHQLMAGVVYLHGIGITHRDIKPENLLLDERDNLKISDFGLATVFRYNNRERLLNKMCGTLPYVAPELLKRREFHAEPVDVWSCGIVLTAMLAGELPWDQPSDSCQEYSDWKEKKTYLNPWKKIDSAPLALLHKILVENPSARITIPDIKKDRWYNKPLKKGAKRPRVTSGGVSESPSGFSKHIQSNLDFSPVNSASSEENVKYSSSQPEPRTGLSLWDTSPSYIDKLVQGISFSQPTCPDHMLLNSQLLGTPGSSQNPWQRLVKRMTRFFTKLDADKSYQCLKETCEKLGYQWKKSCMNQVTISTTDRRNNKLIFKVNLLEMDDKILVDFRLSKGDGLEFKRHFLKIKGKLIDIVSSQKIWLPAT
Summary of the method: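 Full-length human CHK1 with C-terminal 6×His tag, made in baculovirus/insect cells, 10 nM, phosphorylating 0.125 mM Syntide-2 with 0.15 mM ATP in 50 mM Tris pH 7.5, 25 mM MgCl2, 400 mM NaCl. PK/LDH-coupled NADH oxidation read at 340 nm. Ki from initial rates over varied compound concentrations.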

CDK2/Cyclin A complex = CDK2/Cyclin A complex (Homo sapiens, UniProt P24941); assay: CDK2/Cyclin A assay; conditions: 1.0 μM; combinatorial library compounds
Summary of the method: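 Radiometric assay: 150 nM CDK2/cyclin A (insect-cell CDK2, truncated cyclin A) phosphorylates His-tagged Rb fragment (residues 386-928) with 25 μM ATP plus [32P]ATP, pH 7.4 HEPES, 2% DMSO, 30 °C for 20 min. Filter-captured product counted by phosphorimager; apparent Ki from competitive or tight-binding inhibition fits.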

T2 sequence (P11802 whole entry): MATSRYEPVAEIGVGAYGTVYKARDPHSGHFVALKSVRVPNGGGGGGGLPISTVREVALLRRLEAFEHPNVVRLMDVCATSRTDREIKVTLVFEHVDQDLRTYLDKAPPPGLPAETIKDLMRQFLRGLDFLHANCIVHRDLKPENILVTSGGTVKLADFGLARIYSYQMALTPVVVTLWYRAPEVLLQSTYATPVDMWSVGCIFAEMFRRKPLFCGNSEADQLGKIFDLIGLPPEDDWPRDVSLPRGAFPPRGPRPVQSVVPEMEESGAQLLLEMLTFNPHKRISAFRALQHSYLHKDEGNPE
T2 sequence (P30281 whole entry partner): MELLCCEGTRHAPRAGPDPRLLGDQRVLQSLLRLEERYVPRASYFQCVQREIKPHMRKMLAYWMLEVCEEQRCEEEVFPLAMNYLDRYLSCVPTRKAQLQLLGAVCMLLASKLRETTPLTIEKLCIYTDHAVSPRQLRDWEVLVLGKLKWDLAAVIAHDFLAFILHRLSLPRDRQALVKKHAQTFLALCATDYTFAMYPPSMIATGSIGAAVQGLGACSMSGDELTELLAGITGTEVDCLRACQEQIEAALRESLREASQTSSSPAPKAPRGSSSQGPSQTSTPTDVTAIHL
T1 sequence (P35968 with tags, fused parts or gaps DEL940-989/E990V limits assumed): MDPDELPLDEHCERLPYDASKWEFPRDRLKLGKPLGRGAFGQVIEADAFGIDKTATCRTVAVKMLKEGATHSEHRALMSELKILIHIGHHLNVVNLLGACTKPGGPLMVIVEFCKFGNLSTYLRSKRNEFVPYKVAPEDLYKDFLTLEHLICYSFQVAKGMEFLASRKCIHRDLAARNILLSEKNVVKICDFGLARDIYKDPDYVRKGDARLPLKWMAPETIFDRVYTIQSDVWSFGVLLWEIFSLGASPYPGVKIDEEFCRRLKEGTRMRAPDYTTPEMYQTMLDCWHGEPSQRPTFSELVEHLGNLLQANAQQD

Row | Structure (SMILES) | inhibition at 20 µM [1] [%] | inhibition at 1 µM (CDK4/Cyclin D3 complex) [%] | inhibition at 20 µM (FL-CHK1) [%] | inhibition at 1 µM (CDK2/Cyclin A complex) [%]
1 | CC(C)c1ccc(Nc2nc(N)c(-c3nc(-c4ccc(O)c(O)c4)cs3)s2)cc1 | 28 | 62.7 | 31.6 | 23.8
2 | CC(C)c1ccc(Nc2nc(N)c(-c3nc(-c4ccc5ccccc5c4)cs3)s2)cc1 | -2 | 51.2 | 10.7 | 17.2
3 | Cc1cc(-c2csc(-c3sc(Nc4ccc(C(C)C)cc4)nc3N)n2)c(C)s1 | 50 | 76.5 | 27.4 | 17.5
4 | CC(C)c1ccc(Nc2nc(N)c(-c3nc(-c4ccc([N+](=O)[O-])cc4)cs3)s2)cc1 | -4 | 35.6 | 6 | 17.8
5 | Cc1cc(-c2csc(-c3sc(Nc4ccc(C(C)C)cc4)nc3N)n2)ccc1Cl | -7 | 9.1 | 9 | 11.7
6 | CC(C)c1ccc(Nc2nc(N)c(-c3nc(-c4ccc(-c5ccccc5)cc4)cs3)s2)cc1 | -9 | 0.7 | 3.2 | 9.6
7 | CC(C)c1ccc(Nc2nc(N)c(-c3nc(-c4ccc(C#N)cc4)cs3)s2)cc1 | 7 | 58.4 | 7.1 | 5.9
8 | CC(C)c1ccc(Nc2nc(N)c(-c3nc(-c4ccc(Cl)cc4Cl)cs3)s2)cc1 | 23 | 81.4 | 21.4 | 25.7
9 | Cc1onc(-c2ccccc2)c1-c1csc(-c2sc(Nc3ccc(C(C)C)cc3)nc2N)n1 | 5 | 49.8 | -0.9 | 11.1
10 | CC(C)c1ccc(Nc2nc(N)c(-c3nc(-c4ccc5c(c4)OCCO5)cs3)s2)cc1 | 14 | 50.6 | 23.8 | 22
11 | CC(C)c1ccc(Nc2nc(N)c(-c3nc(-c4ccc(F)cc4)cs3)s2)cc1 | 48 | 80.7 | 39.8 | 16.1
12 | CC(C)c1ccc(Nc2nc(N)c(-c3nc(-c4ccc(OC(=O)c5ccccc5)cc4)cs3)s2)cc1 | -4 | 45.9 | 7.5 | 73
13 | CC(C)c1ccc(Nc2nc(N)c(-c3nc(-c4ccc[nH]4)cs3)s2)cc1 | 22 | 53.3 | 17.6 | 19
14 | CC(C)c1ccc(Nc2nc(N)c(-c3nc(-c4ccc(F)c(F)c4)cs3)s2)cc1 | 5 | 39.5 | 10.9 | 21.2
15 | CC(C)c1ccc(Nc2nc(N)c(-c3nc(-c4cccc([N+](=O)[O-])c4)cs3)s2)cc1 | -2 | 35.3 | 7.2 | 24.7
16 | CC(C)c1ccc(Nc2nc(N)c(-c3nc(-c4ccc(Cl)c(Cl)c4)cs3)s2)cc1 | -4 | -7.9 | 0.3 | 10.4
17 | CC(C)c1ccc(Nc2nc(N)c(-c3nc(-c4ccc(O)cc4)cs3)s2)cc1 | 49 | 77 | 25 | 10.5
18 | Cc1cc(-c2csc(-c3sc(Nc4ccc(C(C)C)cc4)nc3N)n2)cc(C)c1O | 45 | 74.6 | 5.1 | 14.1
19 | CC(C)c1ccc(Nc2nc(N)c(-c3nc(-c4c(Cl)c(Cl)nc(Cl)c4Cl)cs3)s2)cc1 | 30 | 72.7 | 19.3 | 12.5

Row | Structure (SMILES) | inhibition at 20 µM [1] [%] | inhibition at 1 µM (CDK4/Cyclin D3 complex) [%] | inhibition at 20 µM (FL-CHK1) [%] | inhibition at 1 µM (CDK2/Cyclin A complex) [%]
20 | Cc1ccc(-c2csc(-c3sc(Nc4ccc(C(C)C)cc4)nc3N)n2)c(C)c1 | 14 | 50 | -2.5 | 23.3
21 | CC(C)c1ccc(Nc2nc(N)c(-c3nc(-c4ccc(CC(=O)O)s4)cs3)s2)cc1 | 33 | 61.8 | 13 | 21.8
22 | CC(C)c1ccc(Nc2nc(N)c(-c3nc(-c4cccc(OC(=O)c5ccccc5)c4)cs3)s2)cc1 | 5 | 48 | 8.8 | 21.7
23 | COc1cc(OC)c(-c2csc(-c3sc(Nc4ccc(C(C)C)cc4)nc3N)n2)c(O)c1Cl | 51 | 72.8 | 38.9 | 31.8
24 | CC(C)c1ccc(Nc2nc(N)c(-c3nc(-c4ccc5oc6ccccc6c5c4)cs3)s2)cc1 | 39 | 75.5 | 18.9 | -4.3
25 | CC(C)c1ccc(Nc2nc(N)c(-c3nc(-c4ccc5c(c4)C(C)(C)CCC5(C)C)cs3)s2)cc1 | 19 | 74.4 | 11.6 | 5.2
26 | CC(C)c1ccc(Nc2nc(N)c(-c3nc(-c4ccc(C(F)(F)F)cc4)cs3)s2)cc1 | -4 | 48.3 | 3.7 | 8.7
27 | CC(C)c1ccc(Nc2nc(N)c(-c3nc(-c4ccc5c(c4)CCC(=O)N5)cs3)s2)cc1 | 21 | 59.5 | 20.9 | 29.1
28 | CC(C)c1ccc(Nc2nc(N)c(-c3nc(-c4ccccc4OC(=O)c4ccccc4)cs3)s2)cc1 | 7 | 56.1 | -4.2 | 4.8
29 | CCc1cc2c(cc1-c1csc(-c3sc(Nc4ccc(C(C)C)cc4)nc3N)n1)C(C)(C)CCC2(C)C | 13 | 61.4 | 6.5 | 6.2
30 | COc1ccc2nc(-c3ccccc3)c(-c3csc(-c4sc(Nc5ccc(C(C)C)cc5)nc4N)n3)cc2c1 | 15 | 85.1 | 14.1 | 26
31 | Cc1c(-c2csc(-c3sc(Nc4ccc(C(C)C)cc4)nc3N)n2)sc2ccccc12 | 5 | 2.4 | -4.7 | 4
32 | CC(C)c1ccc(Nc2nc(N)c(-c3nc(-c4cc(C(C)(C)C)c(O)c(C(C)(C)C)c4)cs3)s2)cc1 | -6 | 46.8 | 7.9 | 20.9
33 | COc1cccc(-c2csc(-c3sc(Nc4ccc(N(C)C)cc4)nc3N)n2)c1 | 10 | -20.3 | 7.8 | 16.3
34 | CCOC(=O)c1ccccc1-c1csc(-c2sc(Nc3ccc(N(C)C)cc3)nc2N)n1 | 25 | 45.9 | 38.5 | 19.8
35 | Cc1c(C)c(C)c(-c2csc(-c3sc(Nc4ccc(N(C)C)cc4)nc3N)n2)c(C)c1C | 33 | 62.7 | 37 | 33.9
36 | CN(C)c1ccc(Nc2nc(N)c(-c3nc(-c4cc(-c5ccccc5)no4)cs3)s2)cc1 | 5 | 29.6 | 0.8 | 24
37 | Cc1c(F)cc(-c2csc(-c3sc(Nc4ccc(N(C)C)cc4)nc3N)n2)cc1Cl | 9 | 76.5 | 27 | 8.2
